Test results from patent publication US9801901B2, “Alginate oligomers for use in overcoming multidrug resistance in bacteria” (priority 2009, dated 2017).
In brackets after ≈: the same amount, converted by molar mass. Like-named read-outs stand apart in the source and are kept apart here. Marks after values point to notes of the source that are not given here.

How the values were obtained:
Assay in all cases: MIC assay, CAMHB with alginate oligomer, no visible growth
Assay type in all cases: cell-based
[1] = system: Pseudomonas aeruginosa CFA 24-1, clinical mucoid strain (R80); details: Pseudomonas aeruginosa, Table 1, R80, read-out: MIC
[2] = system: Pseudomonas aeruginosa MDR R22 from China (V1); details: Pseudomonas aeruginosa, Table 1, V1 MDR R22 PA, read-out: MIC
Description: (§1) The study described in Example 1 was repeated with the following strains of bacteria and antibiotics as detailed in Tables 4, 5 and 6.

[3] = system: Acinetobacter baumannii MDR ACB from Libya (V4); details: Acinetobacter baumannii, read-out: MIC
Description: as §1
The study described in Example 1 was repeated with the following strains of Acinetobacter baumannii, antibiotics and M-block alginate oligomer in place of OligoG CF-5/20 as detailed in Table 7. The M-block oligomer is 100% M with a DPn of 15 to 18,

[4] = system: V9 (Egypt) Acinetobacter baumannii; details: Table 5, V9 MDR Acin. baum
[5] = system: V10 (Egypt) Acinetobacter lwoffii; details: Table 5, V10 MDR Acin. lwoff
V11 5702 (Wales) E. coli = details: Table 5, V11 MDR E.coli
[6] = system: V23 1322 Burkholderia cepacia

With `C[C@@H](O)[C@H]1C(=O)N2C(C(=O)O)=C(S[C@@H]3CN[C@H](C(=O)N(C)C)C3)[C@H](C)[C@H]12` [Meropenem] the MIC ([1]; OligoCF-5/20 0G) was < 1 µg/mL, the MIC ([1]; OligoCF-5/20 +2% G) was < 1 µg/mL and the MIC ([1]; OligoCF-5/20 +6% G) was < 1 µg/mL. The MIC ([1]; OligoCF-5/20 +10% G) was < 1 µg/mL, the MIC ([2]; OligoCF-5/20 0G) was 32 µg/mL (≈ 83.4 µM) and the MIC ([2]; OligoCF-5/20 +2% G) was 32 µg/mL (≈ 83.4 µM). The MIC ([2]; OligoCF-5/20 +6% G) was 16 µg/mL (≈ 41.7 µM), the MIC ([2]; OligoCF-5/20 +10% G) was 4 µg/mL (≈ 10.4 µM) and the MIC ([3]; Table 1, V4 ACB (Libya), OligoCF-5/20 0G) was < 4 µg/mL. For the same molecule, the MIC ([3]; Table 1, V4 ACB (Libya), OligoCF-5/20 +2% G) was < 4 µg/mL, the MIC ([3]; Table 1, V4 ACB (Libya), OligoCF-5/20 +6% G) was < 4 µg/mL and the MIC ([3]; Table 1, V4 ACB (Libya), OligoCF-5/20 +10% G) was < 4 µg/mL. The MIC ([3]; Table 7, V4 MDR Acin baum (Libya), M-block oligomer 0M) was 16 µg/mL (≈ 41.7 µM), the MIC ([3]; Table 7, V4 MDR Acin baum (Libya), M-block oligomer +2% M) was 32 µg/mL (≈ 83.4 µM) and the MIC ([3]; Table 7, V4 MDR Acin baum (Libya), M-block oligomer +6% M) was 16 µg/mL (≈ 41.7 µM). The MIC ([3]; Table 7, V4 MDR Acin baum (Libya), M-block oligomer +10% M) was 8 µg/mL (≈ 20.9 µM), the MIC ([4]; Acinetobacter baumannii, OligoCF-5/20 0G, read-out: MIC) was 16 µg/mL (≈ 41.7 µM) and the MIC ([4]; OligoCF-5/20 +2% G) was 8^† μg/ml. The MIC ([4]; OligoCF-5/20 +6% G) was 8^† μg/ml, the MIC ([4]; OligoCF-5/20 +10% G) was 4^† μg/ml and the MIC ([5]; Acinetobacter lwoffii, OligoCF-5/20 0G, read-out: MIC) was 1 µg/mL (≈ 2.61 µM). For the same molecule, the MIC ([5]; OligoCF-5/20 +2% G) was 0.5^† μg/ml, the MIC ([5]; OligoCF-5/20 +6% G) was <0.25^† μg/ml and the MIC ([5]; OligoCF-5/20 +10% G) was <0.25^† μg/ml. The MIC (V11 5702 (Wales) E. coli; Escherichia coli, OligoCF-5/20 0G, read-out: MIC) was < 0.25 µg/mL, the MIC (V11 5702 (Wales) E. coli; OligoCF-5/20 +2% G) was <0.25 µg/mL and the MIC (V11 5702 (Wales) E. coli; OligoCF-5/20 +6% G) was <0.25 µg/mL. The MIC (V11 5702 (Wales) E. coli; OligoCF-5/20 +10% G) was <0.25 µg/mL, the MIC ([6]; Burkholderia cepacia, Table 5, V23 MDR Burk cep, OligoCF-5/20 0G, read-out: MIC) was 64 µg/mL (≈ 167 µM) and the MIC ([6]; Table 5, V23 MDR Burk cep, OligoCF-5/20 +2% G) was 64 µg/mL (≈ 167 µM). For the same molecule, the MIC ([6]; Table 5, V23 MDR Burk cep, OligoCF-5/20 +6% G) was 32^† μg/ml, the MIC ([6]; Table 5, V23 MDR Burk cep, OligoCF-5/20 +10% G) was 8^† μg/ml and the MIC ([6]; Table 6, V23, Experiment 1 (18-03-10), OligoCF-5/20 +6% G) was 64^† μg/ml. For the same molecule, the MIC ([6]; Table 6, V23, Experiment 1 (18-03-10), OligoCF-5/20 +10% G) was 64^† μg/ml, the MIC ([6]; Table 6, V23, Experiment 3 (19-03-10), OligoCF-5/20 +2% G) was 64^† μg/ml and the MIC ([6]; Table 6, V23, Experiment 3 (19-03-10), OligoCF-5/20 +10% G) was 64^† μg/ml.
